Laboratory results taken from US9670261B2 (Sanofi, priority 2012, dated 2017).
Converted amounts (≈) assume the structure as drawn. *1 amine or outer side, *2 acyl side, *3 side chain or, on linkers, in order; H or OH if unused. Where a SMILES comes first, the peptide text is derived from it. Side-chain parts run from the residue outwards. [ ]: non-standard residue; d: D form. The star is where a group is joined. γGlu = O=C(O)[C@H](CCC(=O)[*:2])N[*:1]; Stearoyl = CCCCCCCCCCCCCCCCCC(=O)*; Palmitoyl = CCCCCCCCCCCCCCCC(=O)*; Aib = CC(C)(N)C(=O)O; GABA = NCCCC(=O)O

Assays:
[1] = tested on: female NMRI-mice; test: Gastric emptying and intestinal passage in mice; format: in vivo; settings: 10 μg/kg s.c., versus vehicle control
Method: Female NMRI-mice of a body weight between 20 and 30 g were used. Mice were adapted to housing conditions for at least one week. Mice were overnight fasted, while water remained available all the time. On the study day, mice were weighed, single-caged and allowed access to 500 mg of feed for 30 min, while water was removed. At the end of the […], remaining feed was removed and weighed. Then, the test compound/reference compound or its vehicle in the control group was administered subcutaneously. 60 min later, to allow the compound to reach relevant plasma exposure, a coloured, non-caloric bolus was instilled via gavage into the stomach. After another 30 min, the animals were sacrificed and the stomach and the small intestine prepared. The filled stomach was weighed, emptied, carefully cleaned and dried and reweighed. The stomach content, calculated as weight of filled subtracted by the weight of emptied stomach, indicated the degree of gastric emptying. The small intestine was straightened without force and measured in length. Then the distance from the gastric beginning of the gut to the tip of the farthest traveled intestinal content bolus was measured. The intestinal passage was given as ratio in percent of the latter distance and the total length of the small intestine. […] Statistical analyses were performed with Everstat 6.0 by 1-way-ANOVA, followed by Dunnett's as post-hoc test. Dunnett's Test was applied to compare versus vehicle control. Differences were considered statistically significant at the p<0.05 level.

[2] = tested on: female NMRI-mice; test: Automated assessment of 22-hours feed intake in mice; format: in vivo; settings: 0.1 mg/kg s.c.
Method: Female NMRI-mice of a body weight between 20 and 30 g were used. Mice were adapted to housing conditions for at least one week and for at least one day single-caged in the assessment equipment, when basal data were recorded simultaneously. On the study day, test product was administered subcutaneously close to the lights-off phase (12 h lights off) and assessment of feed consumption was directly started afterwards. Assessment included continued monitoring over 22 hours, while data are processed as mean over every 30 min. Repetition of this procedure over several days was possible. Restriction of assessment to 22 hours was for practical reasons to allow for reweighing of animals, refilling of feed and water and drug administration between procedures. Results could be assessed as cumulated data over 22 hours or differentiated to 30 min intervals. […] Statistical analyses were performed with Everstat 6.0 by two-way ANOVA on repeated measures and Dunnett's post-hoc analyses. Differences were considered statistically significant at the p<0.05 level. […] Lights-off phase (dark phase) started 4 hours later. […].

[3] = tested on: female leptin-receptor deficient diabetic db/db mice; test: Blood glucose and HbA1c in leptin-receptor deficient diabetic db/db mice (method 3); format: in vivo; settings: single 100 μg/kg s.c., fed db/db mice
Text: Female BKS.Cg-m+/+Leprdb/J (db/db) and BKS.Cg-m+/+Leprdb/+(lean control) mice were obtained from Charles River Laboratories, Germany, at an age of 9-10 weeks. The animals were housed in groups in a specific pathogen-free barrier facility on a 12-h light/dark cycle with free access to water and rodent-standard chow. After 1 week of acclimatization, blood samples were drawn from the tail without anaesthesia and blood glucose (method: d-glucose hexokinase, hemolysate, AU640 Beckman Coulter) and HbA1c level (method: hemolysate, Cobas6000 c501, Roche Diagnostics, Germany) were determined. […] The volume of administration was 5 mL/kg. The animals had access to water and chow during the experiment, food consumption was determined at all time points of blood sampling. […] Blood sampling was performed by tail incision without anaesthesia. […] At the end of the study, blood samples (tail, no anaesthesia) were analyzed for glucose and HbA1c. […] Statistical analyses were performed with Everstat 6.0 by repeated measures two-way ANOVA and Dunnett's post-hoc analyses. Differences versus vehicle-treated db/db control mice were considered statistically significant at the p<0.05 level. […] At predefined time points, more blood samples were taken to measure blood glucose and generate the blood glucose profile over 24 h. […] Blood glucose and HbA1c were determined before start of treatment and at the end of the study after 4 weeks of treatment. […] Before treatment started, no significant differences in blood glucose levels could be detected between db/db groups, only the lean control animals had significant lower glucose levels. During the 4 weeks of treatment, glucose levels increased in the vehicle-treated db/db control group, indicating a worsening of the diabetic situation.

[4] = Pharmacokinetic testing in mice, s.c.; settings: mouse, in vivo, sc, 1 mg/kg
Method: Mice were dosed 1 mg/kg subcutaneously (s.c.). The mice were sacrified and blood samples were collected after 0.25, 0.5, 1, 2, 4, 8, 16 and 24 hours post application. Plasma samples were analyzed after protein precipitation via liquid chromatography mass spectrometry (LC/MS). PK parameters and half-life were calculated using WinonLin Version 5.2.1 (non-compartment model).

[5] = Solubility testing in buffer (HPLC-UV)
[6] = Chemical stability in solution, 7 days at 25° C. (% remaining peptide); settings: % remaining peptide after 7 days at 25° C.
Method: After that time course, the sample was centrifuged for 20 min at 4000 rpm and the supernatant was analysed with HPLC-UV. For determination of the amount of the remaining peptide, the peak areas of the target compound at t0 and t7 were compared, resulting in “% remaining peptide”, following the equation % remaining peptide=[(peak area peptide t7)×100]/peak area peptide t0.
The chemical stability is expressed as “% remaining peptide”.

[7] = target: T1, human GLP-1 receptor (Homo sapiens, UniProt P43220); test: cAMP response (HTRF) of HEK-293 cells stably expressing human GLP-1 receptor; format: cell-based; settings: Table 7; cAMP formation; read-out: EC50 hGLP-1 R
T1 construct: expressed in transfected cells
Outline: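 cAMP accumulation was read by homogeneous time-resolved fluorescence after 30 min compound exposure at room temperature. Stable receptor-expressing HEK-293 cells, 400000 cells/ml, were used in HEPES-buffered HBSS containing 0.1% BSA and the phosphodiesterase inhibitor IBMX (2 mM).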

[8] = target: T2, human GIP receptor (Homo sapiens, UniProt P48546); test: cAMP response (HTRF) of HEK-293 cells stably expressing human GIP receptor; format: cell-based; settings: Table 7; cAMP formation; read-out: EC50 hGIP R
T2 construct: expressed in transfected cells
T2 sequence (P48546 22-466): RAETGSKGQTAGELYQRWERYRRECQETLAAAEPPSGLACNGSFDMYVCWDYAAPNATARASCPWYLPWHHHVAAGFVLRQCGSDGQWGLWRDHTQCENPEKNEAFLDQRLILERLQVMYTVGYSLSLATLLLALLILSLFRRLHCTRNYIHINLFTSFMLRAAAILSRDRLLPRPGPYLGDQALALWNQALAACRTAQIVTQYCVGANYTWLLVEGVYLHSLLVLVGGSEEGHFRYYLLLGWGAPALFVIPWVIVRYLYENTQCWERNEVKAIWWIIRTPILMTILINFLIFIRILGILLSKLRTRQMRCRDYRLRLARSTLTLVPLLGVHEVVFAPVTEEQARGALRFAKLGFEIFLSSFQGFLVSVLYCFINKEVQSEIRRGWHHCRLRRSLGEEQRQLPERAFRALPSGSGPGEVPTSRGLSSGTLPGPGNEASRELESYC
Method: cAMP content of cells was determined using a kit from Cisbio Corp. (cat. no. 62AM4PEC) based on HTRF (Homogenous Time Resolved Fluorescence). For preparation, cells were split into T175 culture flasks and grown overnight to near confluency in medium (DMEM/10% FBS). Medium was then removed and cells washed with PBS lacking calcium and magnesium, followed by proteinase treatment with accutase (Sigma-Aldrich cat. no. A6964). Detached cells were washed and resuspended in assay buffer (1×HBSS; 20 mM HEPES, 0.1% BSA, 2 mM IBMX) and cellular density determined. They were then diluted to 400000 cells/ml and 25 μl-aliquots dispensed into the wells of 96-well plates. For measurement, 25 μl of test compound in assay buffer was added to the wells, followed by incubation for 30 minutes at room temperature.

T1 sequence (P43220 24-463): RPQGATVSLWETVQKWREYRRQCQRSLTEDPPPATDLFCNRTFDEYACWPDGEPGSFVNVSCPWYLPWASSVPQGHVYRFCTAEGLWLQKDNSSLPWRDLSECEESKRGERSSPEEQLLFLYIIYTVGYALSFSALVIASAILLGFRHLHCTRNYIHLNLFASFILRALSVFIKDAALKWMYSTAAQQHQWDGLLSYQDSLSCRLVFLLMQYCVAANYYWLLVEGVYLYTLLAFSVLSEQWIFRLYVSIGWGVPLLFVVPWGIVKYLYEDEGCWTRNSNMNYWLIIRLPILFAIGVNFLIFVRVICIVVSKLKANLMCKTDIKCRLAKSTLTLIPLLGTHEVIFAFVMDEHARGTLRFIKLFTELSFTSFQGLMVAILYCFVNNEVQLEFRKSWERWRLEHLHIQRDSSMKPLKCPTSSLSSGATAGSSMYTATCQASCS

SMILES: CCCCCCCCCCCCCCCC(=O)N[C@@H](CCC(=O)NCCCC[C@H](NC(=O)[C@H](CCC(N)=O)NC(=O)[C@@H](NC(=O)[C@H](CO)NC(=O)[C@H](CC(C)C)NC(=O)[C@H](CC(=O)O)NC(=O)[C@H](CO)NC(=O)[C@@H](NC(=O)[C@H](Cc1ccccc1)NC(=O)[C@@H](NC(=O)CNC(=O)[C@H](CCC(N)=O)NC(=O)C(C)(C)NC(=O)[C@@H](N)Cc1ccc(O)cc1)[C@@H](C)O)[C@@H](C)O)[C@@H](C)CC)C(=O)N[C@@H](CC(=O)O)C(=O)N[C@@H](CO)C(=O)N[C@@H](CCCNC(=N)N)C(=O)N[C@@H](C)C(=O)N[C@@H](C)C(=O)N[C@@H](CCC(N)=O)C(=O)N[C@@H](CC(=O)O)C(=O)N[C@@H](Cc1ccccc1)C(=O)N[C@H](C(=O)N[C@@H](CCC(=O)O)C(=O)N[C@@H](Cc1c[nH]c2ccccc12)C(=O)N[C@@H](CC(C)C)C(=O)N[C@@H](CCCCN)C(=O)N[C@@H](CC(N)=O)C(=O)NCC(=O)NCC(=O)N1CCC[C@H]1C(=O)N[C@@H](CO)C(=O)N[C@@H](CO)C(=O)NCC(=O)N[C@@H](C)C(=O)N1CCC[C@H]1C(=O)N1CCC[C@H]1C(=O)N1CCC[C@H]1C(=O)N[C@@H](CO)C(N)=O)[C@@H](C)CC)C(=O)O [SEQ ID NO: 13, Y-Aib-Q-G-T-F-T-S-D-L-S-I-Q-K(γE-x53)-DSRAAQDFIEWLKNGGPSSGAPPPS-NH2] (H-Y[Aib]QGTFTSDLSIQK([γGlu-Palmitoyl])DSRAAQDFIEWLKNGGPSSGAPPPS-NH2)
- increase of remaining gastric contents [1]: 40%
- reduction of intestinal passage [1]: 60%
- reduction of feed intake after 22 hours [2]: 93%
- blood glucose compared to db/db control mice, 24 h profile [3]: significant decrease in blood glucose
- Cmax [4]: 3790 ng/mL
- half-life [4]: 3.1 h
- solubility at 2 h ([5]; pH 4.5): 268 µg/mL (≈ 59.4 µM)
- solubility at 2 h ([5]; pH 7.4): > 1000 µg/mL
- Stability (pH 4.5) [6]: 86.8%
- Stability (pH 7.4) [6]: 95.9%

SMILES: CCCCCCCCCCCCCCCCCC(=O)NCCCC(=O)NCCCC[C@H](NC(=O)[C@H](CCC(N)=O)NC(=O)[C@@H](NC(=O)[C@H](CO)NC(=O)[C@H](CC(C)C)NC(=O)[C@H](CC(=O)O)NC(=O)[C@H](CO)NC(=O)[C@@H](NC(=O)[C@H](Cc1ccccc1)NC(=O)[C@@H](NC(=O)CNC(=O)[C@H](CCC(=O)O)NC(=O)C(C)(C)NC(=O)[C@@H](N)Cc1ccc(O)cc1)[C@@H](C)O)[C@@H](C)O)[C@@H](C)CC)C(=O)N[C@@H](CCC(=O)O)C(=O)N[C@@H](CCCCN)C(=O)N[C@@H](CCCNC(=N)N)C(=O)N[C@@H](C)C(=O)N[C@@H](C)C(=O)NC(C)(C)C(=O)N[C@@H](CCC(=O)O)C(=O)N[C@@H](Cc1ccccc1)C(=O)N[C@H](C(=O)N[C@@H](CCC(=O)O)C(=O)N[C@@H](Cc1c[nH]c2ccccc12)C(=O)N[C@@H](CC(C)C)C(=O)N[C@@H](CCCCN)C(=O)N[C@@H](CC(N)=O)C(=O)N[C@H](C(=O)NCC(=O)N1CCC[C@H]1C(=O)N[C@@H](CO)C(=O)N[C@@H](CO)C(=O)NCC(=O)N[C@@H](C)C(=O)N1CCC[C@H]1C(=O)N1CCC[C@H]1C(=O)N1CCC[C@H]1C(=O)N[C@@H](CO)C(N)=O)[C@@H](C)O)[C@@H](C)CC [SEQ ID NO: 17, Y-Aib-E-G-T-F-T-S-D-L-S-I-Q-K(GABA-x70)-E-K-R-A-A-Aib-E-F-I-E-W-L-K-N-T-G-P-S-S-G-A-P-P-P-S-NH2] (H-Y[Aib]EGTFTSDLSIQK([GABA-Stearoyl])EKRAA[Aib]EFIEWLKNTGPSSGAPPPS-NH2)
- EC50 [7]: 8.7 pM
- EC50 [8]: 9.6 pM
- solubility at 2 h ([5]; buffer, pH 4.5): 970 µg/mL (≈ 213 µM)
- solubility at 2 h ([5]; buffer, pH 7.4): > 1000 µg/mL
- Stability (pH 4.5) [6]: 100.0%
- Stability (pH 7.4) [6]: 100.0%
